Measured values published in patent publication US20240269304A1, “BCL-XL INHIBITOR ANTIBODY-DRUG CONJUGATES AND METHODS OF USE THEREOF” (Novartis AG, priority 2020, published 2024).
pIC50: −log10 of the molar value. Where two headings read alike, the source gives them in different places.

What was measured:
ALL-SILL (T-ALL) = test: CellTiter-Glo viability 72 h, single agent or 1/1 combination, ALL-SIL (Example 9); format: cell-based; conditions: single agent or 1/1 combination as labelled
Experimental: Cell lines were cultured in the media described above at 37° C. in a humidified atmosphere containing 5% CO2. […] Effects of payloads or ADCs on cell viability were assessed after 3 days of incubation at 37° C./5% CO2 by quantification of cellular ATP levels using CellTiter-Glo reagent (Promega Ref: G7571) at 75 μL reagent/well. All the conditions were tested in triplicates. Luminescence was quantified on a multipurpose plate reader. IC50s were calculated using standard four-parametric curve fitting.

SUDHL8 (DLBCL) = test: CellTiter-Glo viability 72 h, single agent or 1/1 combination, SUDHL8 (Example 9); format: cell-based; conditions: Homo sapiens, SU-DHL-8, single agent or 1/1 combination as labelled
Experimental: (§1) Cell lines were cultured in the media described above at 37° C. in a humidified atmosphere containing 5% CO2. Cells were seeded in 96 well clear bottom plates (96 well clear-bottom, white, Corning reference 3903) and exposed to the payloads or ADCs at single agents or in 1/1 combinations with vincristine, ABT-199 or compound A2 for 72 h (serially diluted; 9 concentrations each, triplicates). Effects of payloads or ADCs on cell viability were assessed after 3 days of incubation at 37° C./5% CO2 by quantification of cellular ATP levels using CellTiter-Glo reagent (Promega Ref: G7571) at 75 μL reagent/well. All the conditions were tested in triplicates. Luminescence was quantified on a multipurpose plate reader. IC50s were calculated using standard four-parametric curve fitting. […] Each experiment was performed at least twice, with results being reproducible.

MM1S (MM) = test: CellTiter-Glo viability 72 h, single agent or 1/1 combination, MM1S (Example 9); format: cell-based; conditions: Homo sapiens, MM1.S, single agent or 1/1 combination as labelled
Experimental: as §1

LOUCY (T-ALL) = test: CellTiter-Glo viability 72 h, single agent or 1/1 combination, LOUCY (Example 9); format: cell-based; conditions: single agent or 1/1 combination as labelled
Experimental: as §1

HPB-ALL (T-ALL) = test: CellTiter-Glo viability 72 h, single agent or 1/1 combination with vincristine, ABT-199 or Compound A2, HPB-ALL (Example 9); format: cell-based; conditions: Homo sapiens, HPBALL, single agent or 1/1 combination as labelled
Experimental: as §1

ncih211 = test: In vitro ADC activity with combination partners, CellTiter-Glo 5 days, ncih211 (Example 13); format: cell-based; conditions: single agent
Experimental: (§2) Antibody drug conjugates (ADCs) targeting IgG, B7H3, CD56, DLK1, DLL3, EpCAM, and SEZ6 were tested against cancer cell lines obtained from ATCC (American Type Culture Collection) or from other commercial cell line vendors (cor1279, ncih1436, ncih146, ncih211, ncih524). The cells were cultured in media that is optimal for their growth at 5% CO2, 37° C. in a tissue culture incubator. Prior to seeding for the proliferation assay, the cells were split at least 2 days before the assay to ensure optimal growth density. On the day of seeding, cells were lifted off tissue culture flasks using 0.25% trypsin. Cell viability and cell density were determined using a cell counter (Vi-Cell XR Cell Viability Analyzer, Beckman Coulter). Cells with higher than 85% viability were seeded in white clear bottom 384-well plates (Greiner cat #781098) at a density of 1000 cells per well in 50 μL of standard growth media. Plates were incubated at 37° C. overnight in a tissue culture incubator.
(§3) The ADCs were prepared in standard phosphate buffered solution to desired concentrations. A series of 10 dilutions were made for each ADC. The prepared drug treatments were then added to the cells resulting in final concentrations of 300 nM to 0.015 nM. Combination partners (Venetoclax and Topotecan) were added at fixed concentrations. Acoustic transfer devices (Echo525, Echo550, Beckman Coulter) were used to add the ADCs or combination partners to the cells. Each treatment was tested in triplicate assay plates. Plates were incubated at 37° C. overnight or for 5 days in a tissue culture incubator. The ability of the ADCs to inhibit cell proliferation and survival was assessed using the Promega CellTiter-Glo® proliferation assay. Plates were incubated at room temperature for 20 minutes to stabilize luminescent signals prior to reading using a multimode plate reader (Pherastar, BMG). Luminescent counts of untreated cells were taken the day after seeding (Day 0 readings), and after 5 days of treatment (Day 5 readings). The Day 5 readings of the untreated cells were compared to the Day 0 readings. Assays with at least one cell doubling during the incubation period were considered valid. To evaluate the effect of the drug treatments, luminescent counts from wells containing untreated cells (100% viability) were used to normalize treated samples. The concentrations of treatment required to inhibit 50% of cell growth or survival ([…]) were calculated using a four parameter logistic regression equation.

ncih1436 = test: In vitro ADC activity with combination partners, CellTiter-Glo 5 days, ncih1436 (Example 13); format: cell-based; conditions: single agent
Experimental: as §2, §3

ncih146 = test: In vitro ADC activity with combination partners, CellTiter-Glo 5 days, ncih146 (Example 13); format: cell-based; conditions: single agent
Experimental: as §2, §3

corl279 = test: In vitro ADC activity with combination partners (Venetoclax, Topotecan), CellTiter-Glo 5 days, corl279 (Example 13); format: cell-based; conditions: single agent
Experimental: as §2, §3

ncih524 = test: In vitro ADC activity with combination partners, CellTiter-Glo 5 days, ncih524 (Example 13); format: cell-based; conditions: single agent
Experimental: as §2, §3

H1650 cells = test: CellTiterGlo (CTG) cell viability, 3D, 120 h, H1650 (Example 8); format: cell-based, human; conditions: Homo sapiens, NCI-H1650, H1650 3D
[1] = mean, read-out: ALL-SILL (T-ALL) IC50 mean
[2] = n1, read-out: ALL-SILL (T-ALL) IC50 n1
[3] = n2, read-out: ALL-SILL (T-ALL) IC50 n2
[4] = mean, read-out: SUDHL8 (DLBCL) IC50 mean
[5] = n1, read-out: SUDHL8 (DLBCL) IC50 n1
[6] = n2, read-out: SUDHL8 (DLBCL) IC50 n2
[7] = mean, read-out: MM1S (MM) IC50 mean
[8] = n1, read-out: MM1S (MM) IC50 n1
[9] = n2, read-out: MM1S (MM) IC50 n2
[10] = mean, read-out: LOUCY (T-ALL) IC50 mean
[11] = n1, read-out: LOUCY (T-ALL) IC50 n1
[12] = n2, read-out: LOUCY (T-ALL) IC50 n2
[13] = mean, read-out: HPB-ALL (T-ALL) IC50 mean
[14] = n1, read-out: HPB-ALL (T-ALL) IC50 n1
[15] = n2, read-out: HPB-ALL (T-ALL) IC50 n2

SMILES | pIC50 (ALL-SILL (T-ALL); [1]) | pIC50 (ALL-SILL (T-ALL); [2]) | pIC50 (ALL-SILL (T-ALL); [3]) | pIC50 (SUDHL8 (DLBCL); [4]) | pIC50 (SUDHL8 (DLBCL); [5]) | pIC50 (SUDHL8 (DLBCL); [6]) | pIC50 (MM1S (MM); [7]) | pIC50 (MM1S (MM); [8]) | pIC50 (MM1S (MM); [9]) | pIC50 (LOUCY (T-ALL); [10]) | pIC50 (LOUCY (T-ALL); [11]) | pIC50 (LOUCY (T-ALL); [12]) | pIC50 (HPB-ALL (T-ALL); [13]) | pIC50 (HPB-ALL (T-ALL); [14]) | pIC50 (HPB-ALL (T-ALL); [15]) | GI Amax ncih211 (ncih211) | GI Amax ncih1436 (ncih1436) | GI Amax ncih146 (ncih146) | GI Amax corl279 (corl279) | GI Amax ncih524 (ncih524) | other results
Cc1c(N(C(=O)c2cc(-c3cc(Cl)ccc3C(=O)N3Cc4ccccc4C[C@H]3CN3CCOCC3)n(C)c2C)c2ccc(O)cc2)cc(C#N)n1C [Compound A2, reference compound] | 6.90 | 6.89 | 6.92 | 5.24 | 5.18 | 5.32 | 5.13 | 5.13 | 5.13 | 7.45 | 7.52 | 7.39 | 5.22 | 5.23 | 5.20 |  |  |  |  |  | 
CC[C@]1(O)C[C@H]2CN(CCc3c([nH]c4ccccc34)[C@@](C(=O)OC)(c3cc4c(cc3OC)N(C=O)[C@H]3[C@@](O)(C(=O)OC)[C@H](OC(C)=O)[C@]5(CC)C=CCN6CC[C@]43[C@@H]65)C2)C1 [Vincristine, vincristine] | 10.05 | 10.03 | 10.08 |  |  |  |  |  |  | 9.14 | 9.02 | 9.30 | 9.15 | 9.17 | 9.14 |  |  |  |  |  | 
CC1(C)CCC(CN2CCN(c3ccc(C(=O)NS(=O)(=O)c4ccc(NCC5CCOCC5)c([N+](=O)[O-])c4)c(Oc4cnc5[nH]ccc5c4)c3)CC2)=C(c2ccc(Cl)cc2)C1 [Venetoclax, venetoclax] |  |  |  |  |  |  |  |  |  |  |  |  |  |  |  | 30.85 | 13 | −16.83 | 98.71 | 105.21 | GI50 (ncih211): 3.92 µM; GI50 (ncih1436): 4.92 µM; GI50 (ncih146): 0.789 µM; GI50 (corl279): > 10 µM; GI50 (ncih524): > 10 µM
CC[C@@]1(O)C(=O)OCc2c1cc1n(c2=O)Cc2cc3c(CN(C)C)c(O)ccc3nc2-1 [Topotecan, topotecan] |  |  |  |  |  |  |  |  |  |  |  |  |  |  |  | −89.36 | −23.22 | −91.77 | −95.95 | −83.85 | GI50 (ncih211; Homo sapiens, NCI-H211, 120 h): 0.0125 µM; GI50 (ncih1436; Homo sapiens, NCI-H1436, 120 h): 0.515 µM; GI50 (ncih146; Homo sapiens, NCI-H146, 120 h): 0.00304 µM; GI50 (corl279; Homo sapiens, COR-L279, 120 h): 0.0152 µM; GI50 (ncih524; Homo sapiens, NCI-H524, 120 h): 0.00827 µM
Cc1c(Nc2nc3ccccc3s2)nnc2c1CCCN2c1ccc(-c2cnn(CC34CC5(C)CC(C)(C3)CC(OCCNCCCO)(C5)C4)c2C)c(C(=O)O)n1 [P25, 6-[3-(1,3-benzothiazol-2-ylamino)-4-methyl-6,7-dihydro-5H-pyrido[2,3-c]pyridazin-8-yl]-3-[1-[[3-[2-(3-hydroxypropylamino)ethoxy]-5,7-dimethyl-1-adamantyl]methyl]-5-methyl-pyrazol-4-yl]pyridine-2-carboxylic acid] | 8.76 | 8.68 | 8.86 | 8.11 | 8.23 | 8.02 | 7.13 | 7.25 | 7.03 | 8.99 | 9.10 | 8.90 | 8.34 | 8.38 | 8.30 |  |  |  |  |  | pIC50 (H1650 cells; experiment n1, read-out: H1650 3D CTG IC50 n1): 8.55; pIC50 (H1650 cells; experiment n2, read-out: H1650 3D CTG IC50 n2): 8.52; pIC50 (H1650 cells; mean of n1 and n2, read-out: H1650 3D CTG IC50 Mean of n1 and n2): 8.54
CC1(C)CCC(CN2CCN(c3ccc(C(=O)NS(=O)(=O)c4ccc(NCC5CCOCC5)c([N+](=O)[O-])c4)c(Oc4cnc5[nH]ccc5c4)c3)CC2)=C(c2ccc(Cl)cc2)C1 [ABT-199, reference compound] | 6.65 | 6.63 | 6.67 | 5.21 | 5.32 | 5.13 | 5.34 | 5.35 | 5.34 | 7.61 | 7.72 | 7.52 | 5.04 | 5.05 | 5.04 |  |  |  |  |  | 
